Tests used:
anti-αGal Ig [1] = experiment: Removal of anti-αGal Ig from serum by αGal epitope on resin (Sepharose), measured by FACS; assay type: binding, rhesus monkey; conditions: epitope on resin (coupled to Sepharose)
Procedure: (§1) Antibodies. Blood was drawn from healthy normal volunteers. Plasma was separated by centrifugation and allowed to clot. Fibrin was removed and plasma was used immediately or stored in aliquots at −70° C. Rhesus monkey serum (California Regional Primate Research Center, Davis, Calif.) was obtained from blood drawn into vacutainer tubes and allowed to clot. After serum was separated by centrifugation, it was pooled, aliquoted and stored at −20° C. or −70° C. In some experiments, sera was heat-inactivated at 56° C. for 30 minutes to destroy complement hemolytic activity. Antibodies to the αGal epitope were affinity purified on an αGal-Sepharose column, which was prepared by coupling αGal-SH to maleimide-Sepharose (Pierce) through Michael addition chemistry at 10 mg/mL resin. Up to 20 mL pooled NHS […] was applied to a 2 mL volume of packed αGal-Sepharose. After the flow through was collected, the column was washed with 10-20 column volumes or until A280 reached baseline values and eluted with 0.1 M triethanolamine, pH 11.5 into tubes containing 1 M Tris, pH 8.0. The column was immediately washed with 10-20 volumes of phosphate-buffered saline (PBS). Fractions were assessed for protein concentration by Bradford assay. Peak fractions were pooled and dialyzed against PBS. […]

anti-αGal Ig [2] = experiment: as above; assay type: binding, human; conditions: epitope on resin (coupled to Sepharose)
Procedure: as §1

With `OC[C@H]1O[C@H](O[C@H]2[C@@H](O)[C@@H](CO)O[C@@H](OCCOCCOCCS)[C@@H]2O)[C@H](O)[C@@H](O)[C@H]1O` [αGal epitope, 2-[2-(2-thioethoxy)ethoxy]ethyl 3-O-(α-D-galactopyranosyl)-β-D-galactopyranoside] the “removal of anti-αGal Ig from normal rhesus monkey serum” value (anti-αGal Ig [1]) was greater than 95% and the “removal of anti-αGal Ig from human serum” value (anti-αGal Ig [2]) was greater than 95%.

Source: patent US20010010818A1, “Methods and formulations for reducing circulating antibodies” (priority 1998, published 2001)
